From patent US10294214B2, “Positive allosteric modulators of human melanocortin-4 receptor” (Vanderbilt University, priority 2016, dated 2019)
Entries after “also recorded” stand apart in the source; their conditions may differ.

Columns and labels:
hMC4R [1] = target: T1, hMC4R (Homo sapiens (Human), UniProt P32245); test: LANCE cAMP assay, hMC4R PAM; type: cell-based; details: for hMC4R PAM LANCE pEC50 Mean: HEK293 cells stably expressing the hMC4R, α-MSH at an EC20 dose; for Emax: read-out: % of αMSH maximal response
T1 sequence (P32245 whole entry): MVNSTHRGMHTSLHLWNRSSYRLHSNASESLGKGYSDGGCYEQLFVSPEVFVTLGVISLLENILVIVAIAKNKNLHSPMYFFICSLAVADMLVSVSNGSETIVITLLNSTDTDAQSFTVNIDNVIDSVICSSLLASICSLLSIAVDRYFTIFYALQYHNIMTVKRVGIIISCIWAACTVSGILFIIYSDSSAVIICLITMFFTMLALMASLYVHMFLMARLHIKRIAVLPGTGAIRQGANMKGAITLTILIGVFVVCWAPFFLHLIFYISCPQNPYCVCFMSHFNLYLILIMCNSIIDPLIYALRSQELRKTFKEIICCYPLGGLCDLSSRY
Description: Analysis of pharmacological properties of compounds was performed using the LANCE cAMP kit (Perkin Elmer). HEK293 cells stably expressing the hMC4R were treated with PAM compounds at doses indicated, then incubated with an Alexa Fluor 647-labeled antibody in stimulation buffer according to manufacturer's instructions for 30 min at RT. Next, α-MSH was added (at an EC20 dose or at doses indicated for concentration-response curves), and plates were incubated for 15 minutes at RT, followed by the addition of 10 μL of detection mix. Plates were then incubated for 30 minutes at RT and read on a Viewlux (Perkin Elmer) using 618 and 671 nm emission filters. IBMX was not included in the assay.

Y receptor = test: Ussing chamber assay, PYY responses in mouse colon mucosa; details: PYY 10 nM; for Effect on PYY responses: Example 3 at 200 nM or 1 μM; for Effect of antagonist on PYY responses: HS014 30 nM, 300 nM BIBO3304 plus 1 μM BIIE0246 in combination
Description: (§1) FIGS. 2A-2I contain data on the characterization of hMC4R PAMs Examples 1, 2, and 3. FIGS. 2A, 2B, and 2C show structures of Examples 1-3, and the affect of Examples 1-3 on the α-MSH dose-response curve at the hMC4R, as determined using the Lance assay. Insets show the concentration-response effect as a function of the fold shift on the α-MSH concentration response curve. […] After α-MSH responses had waned all tissues received PYY (10 nM) to verify residual Y receptor anti-secretory activity. Basal Isc values are indicated to the left of each trace from an exposed area of 0.14 cm^2. Vertical arrows show the timepoint at which α-MSH Isc responses were recorded. […] Each value is the mean±1 SEM with n values in parentheses. ** P<0.01 using one-way ANOVA with Dunnett's post-test.
(§2) GI tissue from adult (12-20 week old) male C57BL/6J mice were dissected free of overlying smooth muscle and mucosae placed between 2 halves of Ussing chambers exposing an area of 0.14 cm^2. Mucosae were bathed both sides with Krebs-Henseleit (KH) buffer of following composition (in mM: 117 NaCl, 24.8 NaHCO3, 4.7 KCl, 1.2 MgSO4, 1.2 KH2PO4, 2.5 CaCl2 and 11.1 D-glucose) aerated with 95% O2/5% CO2 (pH 7.4) and voltage-clamped at 0 mV as described in detail previously (Cox et al., 2001; Cox and Tough, 2002). MC4R activity in mouse colonic epithelium was then characterized. Mouse mucosae were pretreated with vehicle or PAM compounds, then with secretagogue, VIP (10 nM, basolateral), and once elevated ISC had reached its peak and was declining at a constant rate, α-MSH was added to the basolateral reservoir to determine responses.
(§3) ISC responses in μA are expressed as the mean±SEM per unit area (cm2). Single comparisons (using GraphPad Prism) were performed using Student's unpaired t-test while multiple comparisons utilized 1-way ANOVA with Dunnett's post test and P≤0.05 were considered statistically significant.

native L cell MC4R = native L cell MC4R (Mus musculus (Mouse), UniProt P56450); test: Ussing chamber assay, α-MSH inhibition of VIP-elevated Isc in mouse colon mucosa; details: for α-MSH response (inhibition of Isc) after pretreatment / Effect of antagonist on α-MSH inhibition of Isc potentiated by 1 μM Example 3: α-MSH 300 nM; for Effect of compound alone on basal Isc: basolateral, Example 3 at 200 nM or 1 μM, vs vehicle; for Effect of antagonist on α-MSH inhibition of Isc potentiated by 1 μM Example 3: HS014 30 nM, 300 nM BIBO3304 plus 1 μM BIIE0246 in combination
native L cell MC4R, sequence (P56450 whole entry): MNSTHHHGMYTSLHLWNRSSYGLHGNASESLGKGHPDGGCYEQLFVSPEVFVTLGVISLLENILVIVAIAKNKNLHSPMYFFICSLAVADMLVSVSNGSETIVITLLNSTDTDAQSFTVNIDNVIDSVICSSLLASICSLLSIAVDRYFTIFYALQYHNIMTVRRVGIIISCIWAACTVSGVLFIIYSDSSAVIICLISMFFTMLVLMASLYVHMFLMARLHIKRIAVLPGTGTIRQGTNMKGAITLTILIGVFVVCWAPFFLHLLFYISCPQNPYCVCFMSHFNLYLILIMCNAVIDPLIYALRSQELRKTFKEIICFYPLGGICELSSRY
Description: as §1, §2, §3

[2] = target: human β2-adrenergic receptor (Homo sapiens (Human), UniProt P07550); test: pGLO cAMP assay, counterscreen; type: cell-based; details: Isop EC20
human β2-adrenergic receptor, sequence (P07550 whole entry): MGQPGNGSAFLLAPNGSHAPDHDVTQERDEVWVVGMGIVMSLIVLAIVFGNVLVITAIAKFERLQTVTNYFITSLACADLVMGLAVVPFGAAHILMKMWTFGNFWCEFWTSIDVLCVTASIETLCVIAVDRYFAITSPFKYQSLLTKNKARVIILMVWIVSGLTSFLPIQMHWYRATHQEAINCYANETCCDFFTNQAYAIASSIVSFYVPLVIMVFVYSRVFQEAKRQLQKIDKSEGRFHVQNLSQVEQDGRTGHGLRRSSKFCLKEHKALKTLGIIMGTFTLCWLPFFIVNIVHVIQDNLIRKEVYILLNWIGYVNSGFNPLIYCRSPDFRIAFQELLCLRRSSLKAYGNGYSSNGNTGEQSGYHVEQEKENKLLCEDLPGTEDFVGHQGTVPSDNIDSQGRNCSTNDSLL
Description: (§4) Drug screening for identification of hits and initial characterization of MC4R PAM compounds were performed using the pGLO assay, as described previously (Pantel J, et al., (2011) Development of a high throughput screen for allosteric modulators of melanocortin-4 receptor signaling using a real time cAMP assay. Eur J Pharmacol 660:139-147. HEK293 cells stably expressing the hMC4R or the hB2ADR with GloSensor (Promega) were plated at a density of 10,000 to 15,000 cells per well on Poly-D-Lysin coated black optical bottom 384 well plates in MEM supplemented with 2% serum. The next day, cells were loaded with the cAMP Glo reagent at a 2% concentration in CO2-independent media for 2 hours at 37° C. […]
(§5) HEK293 cells stably expressing the hMC4R or the β-adrenergic receptor with the p-Promega pGlo luciferase cAMP reporter were plated at a density of 10,000 to 15,000 cells per well on Poly-D-Lysin coated black optical bottom 384 well plates in MEM supplemented with 2% serum. The next day, cells were loaded with the p-Glo substrate at a 2% concentration in CO2-independent media for 2 hours at 37° C. cAMP concentration in cells were measured as a function of luminescence over time using a Hamamatsu FDSS 6000 plate reader. Basal luminescence were measured for 5 minutes followed by injection of 1 μM of the library compounds. […]

hMC4R [3] = target: T1, hMC4R; test: pGLO cAMP assay, PAM HTS primary screen; type: cell-based; details: 1 μM of library compound
Description: as §4, §5

C57BL/6 mice = test: Inhibition of fast-induced refeeding in the mouse; type: in vivo; details: single i.p. dose 5 mg/kg; overnight fasted mice; food intake after two and six hours
Description: FIG. 4 contains data from assays of inhibition of food intake in the mouse by MC4R PAM Example 3. Nine to ten week old C57BL/6 mice were fasted overnight (15 to 17 hours) and re-feeding was monitored the following day after a single i.p. dose of Example 3 (5 mg/kg) or vehicle (10% Tween 80, 5% DMSO v/v). Normalized food intake (food consumed in grams per 100 grams of body weight) per treatment group is shown in the top graphs after two hours (top left) and six hours (top right) of onset of re-feeding phase. Body weight changes for two and six hours are shown in the bottom left and right panels respectively. p values are noted on each graph and were determined by unpaired t tests. Significance was set to p values <0.05.

For O=C(CN1CCC2(CCCC2)CC1)Nc1c(C(=O)C2CC2)[nH]c2ccccc12 [Example 2, N-(2-(cyclopropanecarbonyl)-1H-indol-3-yl)-2-(8-azaspiro[4.5]decan-8-yl)acetamide], the “hMC4R PAM LANCE pEC50 Mean” value (hMC4R [1]) was 6.3, the pEC50 (hMC4R [1]; in vitro characterisation) was 6.3 and the Emax (hMC4R [1]; in vitro characterisation) was 80%. The “Effect on PYY responses” value (Y receptor) was “unaffected”, the “α-MSH response (inhibition of Isc) after pretreatment” value (shortened to “α-MSH response (inhibition of Isc)”) (native L cell MC4R; 3 μM pretreatment) was “potentiated significantly” and the “Effect of compound alone on basal Isc” value (native L cell MC4R) was “not significantly different to vehicle controls”. For the same molecule, the “MC4R PAM activity on α-MSH induced, PYY mediated short circuit current inhibition” value (native L cell MC4R; mouse colonic epithelium) was “exhibited MC4R PAM activity”.
In the case of CC(C)(C)C1CCN(CC(=O)Nc2c(C(=O)C3CC3)[nH]c3ccccc23)CC1 [Example 1, 2-(4-(tert-butyl)piperidin-1-yl)-N-(2-(cyclopropanecarbonyl)-1H-indol-3-yl)acetamide], the “hMC4R PAM LANCE pEC50 Mean” value (hMC4R [1]) is reported as 6.2, the EC50 (hMC4R [1]; in vitro characterisation) is reported as 398 nM and the Emax (hMC4R [1]; in vitro characterisation) is reported as 83%. For the same molecule, the “Effect on PYY responses” value (Y receptor) was “unaffected”, the “α-MSH response (inhibition of Isc)” value (native L cell MC4R; 10 μM pretreatment) was “potentiated significantly” and the “Effect of compound alone on basal Isc” value (native L cell MC4R) was “not significantly different to vehicle controls”. For the same molecule, the “MC4R PAM activity on α-MSH induced, PYY mediated short circuit current inhibition” value (native L cell MC4R; mouse colonic epithelium) was “exhibited MC4R PAM activity”.
For COc1cc(-c2nc(NCc3ccco3)c3ccccc3n2)cc(OC)c1OC [VUO127431, N-(furan-2-ylmethyl)-2-(3,4,5-trimethoxyphenyl)quinazolin-4-amine], the “Effect on β2-adrenergic-receptor signaling (cAMP)” value [2] was “no significant effect on β2-adrenergic-receptor signaling” and the “Effect on hMC4R signaling (cAMP) with α-MSH EC20” value (hMC4R [3]) was “enhanced hMC4R signaling”.
In the case of N=C(N)NCCC[C@H](NC(=O)CC1(CC(=O)N2CCN(C3c4ccccc4NC(=O)c4ccccc43)CC2)CCCC1)C(=O)NCCn1c(=O)n(-c2ccccc2)n(-c2ccccc2)c1=O (stereo partly shown) [BIIE0246, reference compound], the “Effect of antagonist on PYY responses” value (Y receptor) is reported as “predictably abolished” and the “Effect of antagonist on α-MSH inhibition of Isc potentiated by 1 μM Example 3” value (native L cell MC4R) is reported as “abolished”.
COC(=O)c1[nH]c2ccccc2c1NC(=O)CN1CCC(C2CCCCC2)CC1 [Example 3, methyl 3-(2-(4-cyclohexylpiperidin-1-yl)acetamido)-1H-indole-2-carboxylate] was tested, and the “hMC4R PAM LANCE pEC50 Mean” value (hMC4R [1]) was 6.7, the pEC50 (hMC4R [1]; in vitro characterisation) was 6.7 and the Emax (hMC4R [1]; in vitro characterisation) was 102%. For the same molecule, the “Anorexigenic activity, fast-induced refeeding” value (C57BL/6 mice) was “small, but statistically significant anorexigenic activity”, the “Effect on PYY responses” value (Y receptor) was “did not modulate the activity of PYY; also recorded: unaffected” and the “α-MSH response (inhibition of Isc)” value (native L cell MC4R; 1 μM pretreatment, vs vehicle controls) was “significantly increased; also recorded: significantly potentiated”. The “Effect of compound alone on basal Isc” value (native L cell MC4R) was “no activity on its own; also recorded: not significantly different from vehicle”, the “MC4R PAM activity on α-MSH induced, PYY mediated short circuit current inhibition” value (native L cell MC4R; mouse colonic epithelium) was “nearly tripled the activity of α-MSH” and the EC50 (native L cell MC4R; mouse colonic epithelium, read-out: EC50 for potentiation of α-MSH induced short circuit current inhibition) was roughly 200 nM.
NC(=O)NCc1ccc(CNC(=O)[C@@H](CCCN=C(N)N)NC(=O)C(c2ccccc2)c2ccccc2)cc1 [BIBO3304, reference compound] was tested, and the “Effect of antagonist on PYY responses” value (Y receptor) was “predictably abolished” and the “Effect of antagonist on α-MSH inhibition of Isc potentiated by 1 μM Example 3” value (native L cell MC4R) was “abolished”.
For O=C(CN1CCC(c2ccccc2)CC1)Nc1c(C(=O)C2CCC2)[nH]c2ccccc12 [Example 56], the “hMC4R PAM LANCE pEC50 Mean” value (hMC4R [1]) was 5.9.
In the case of COC(=O)c1[nH]c2ccccc2c1NC(=O)CN1CCN(c2cccc(C(F)(F)F)c2)CC1 [Example 12], the “hMC4R PAM LANCE pEC50 Mean” value (hMC4R [1]) is reported as 6.3.
In the case of CC(=O)c1[nH]c2ccc(Br)cc2c1NC(=O)CN1CCC(Cc2ccccc2)CC1 [Example 44], the “hMC4R PAM LANCE pEC50 Mean” value (hMC4R [1]) is reported as 6.4.
With CC1(C)CCCN(CC(=O)Nc2c(C(=O)C3CC3)[nH]c3ccc(S(C)(=O)=O)cc23)C1 [Example 48] the “hMC4R PAM LANCE pEC50 Mean” value (hMC4R [1]) was 6.3.
COC(=O)c1[nH]c2ccc(C)cc2c1NC(=O)CN1CCN(c2cccc(C)c2C)CC1 [Example 27] was tested, and the “hMC4R PAM LANCE pEC50 Mean” value (hMC4R [1]) was 5.9.
